Results taken from the supplement of paper PMC10307832.

Columns and labels:
Assay in all cases: relative viability (nuclei count vs DMSO), 5 days (fraction); higher = more cells survive
[1] = compound: COc1cc2nc(N3CCCN(C)CC3)nc(NC3CCN(Cc4ccccc4)CC3)c2cc1OC + CC1(C)CCC(c2ccc(Cl)cc2)=C(CN2CCN(c3ccc(C(=O)NS(=O)(=O)c4ccc(N[C@H](CCN5CCOCC5)CSc5ccccc5)c(S(=O)(=O)C(F)(F)F)c4)cc3)CC2)C1 [Navitoclax] (partner 0.5 µM)
Method in brief: (§1)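 The day after seeding in 1536-well plates, lung cancer cell lines were treated by pin tool with a single drug, or with a fixed anchor-drug dose together with five library-drug doses (not always all listed) in √10 steps. After 5 days, a combined fix-and-stain solution (final 0.05% Triton X-100, 1% formaldehyde, 1 ug/ml Hoechst) was added. Nuclei counted on 4× images gave relative viability as treated counts over vehicle counts, reported as the median of duplicate plates.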

AZD6482 + Phenformin = compound: Cc1cc([C@@H](C)Nc2ccccc2C(=O)O)c2nc(N3CCOCC3)cc(=O)n2c1 [AZD6482] + N=C(N)NC(=N)NCCc1ccccc1 [Phenformin] (partner 250 µM)
Method in brief: as §1

[2] = compound: COc1cc2nc(N3CCCN(C)CC3)nc(NC3CCN(Cc4ccccc4)CC3)c2cc1OC
Method in brief: (§2)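 Only plates meeting two conditions passed: control CV below 25% and at least one doubling. Lung cancer cell lines, kept overnight at 37 °C in 1536-well plates, were pinned with five library-drug doses (not always all listed) √10 apart on vehicle-anchored plates and grown 5 days without medium change. A one-step fix, permeabilisation and Hoechst stain preceded 4× imaging and MetaXpress nuclear counting. Viability equals treated-well nuclei divided by vehicle-well nuclei, as the median over plates.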

AZD6482 = compound: Cc1cc([C@@H](C)Nc2ccccc2C(=O)O)c2nc(N3CCOCC3)cc(=O)n2c1 [AZD6482]
Method in brief: as §2

Cell Line | relative viability ([1]; first compound 0.2 µM) | relative viability ([1]; first compound 0.6325 µM) | relative viability ([1]; first compound 2 µM) | relative viability ([1]; first compound 6.325 µM) | relative viability (AZD6482 + Phenformin; first compound 0.08 µM) | relative viability (AZD6482 + Phenformin; first compound 0.253 µM) | relative viability (AZD6482 + Phenformin; first compound 0.8 µM) | relative viability (AZD6482 + Phenformin; first compound 8 µM) | relative viability ([2]; 0.2 µM) | relative viability ([2]; 0.6325 µM) | relative viability ([2]; 2 µM) | relative viability ([2]; 6.325 µM) | relative viability (AZD6482; 0.08 µM) | relative viability (AZD6482; 0.253 µM) | relative viability (AZD6482; 0.8 µM) | relative viability (AZD6482; 2.53 µM) | relative viability (AZD6482; 8 µM) | relative viability (AZD6482 + Phenformin; first compound 2.53 µM)
NCI-H3122 | 1.01 | 1.02 | 1.05 | 0.992 | 0.385 | 0.381 | 0.371 | 0.412 | 0.932 | 0.959 | 1.04 | 0.998 | 1 | 1.02 | 1.01 | 0.756 | 0.915 | 
HCC-827 | 1.01 | 1.01 | 0.988 | 1.01 | 0.45 | 0.345 | 0.381 | 0.301 | 1.05 | 1.04 | 1 | 1.01 | 0.979 | 1.02 | 1.02 | 0.854 | 0.918 | 0.288
SK-LU-1 | 1.06 | 1 | 1.2 | 0.461 |  | 0.454 | 0.502 | 0.237 | 1.01 | 1.01 | 1.08 | 1.02 |  | 0.978 | 1.03 | 0.722 | 0.592 | 0.347
NCI-H1975 | 1.2 | 1.18 | 1.21 | 1.05 | 0.373 | 0.383 | 0.401 | 0.232 | 0.974 | 0.999 | 1.15 | 1 | 0.853 | 0.84 | 0.939 | 0.652 | 0.573 | 0.283
NCI-H1651 | 1.14 | 1.02 | 1.42 | 1.03 | 0.281 | 0.296 | 0.33 | 0.242 | 0.974 | 0.983 | 1.02 | 1.03 | 0.897 | 0.932 | 0.93 | 0.814 | 0.815 | 0.253
NCI-H441 | 0.591 |  | 0.831 | 0.277 | 0.677 | 0.679 | 0.967 | 0.468 | 0.985 | 0.825 | 1.03 | 0.81 | 1.01 | 0.896 | 1.22 |  | 1.02 | 
LCLC-97TM1 | 0.37 |  | 0.34 | 0.444 | 0.443 | 0.44 | 0.39 | 0.308 | 0.936 | 0.996 | 1.09 | 0.947 | 1.03 | 0.865 | 0.855 |  | 0.836 | 0.363
NCI-H727 | 0.495 | 0.517 | 0.381 | 0.225 | 0.445 | 0.683 | 0.465 | 0.315 | 0.834 | 0.867 | 0.826 | 0.783 | 0.877 | 0.789 | 0.945 | 0.58 | 0.833 | 0.488
NCI-H1355 | 0.918 | 0.947 | 1.01 | 0.921 | 0.41 | 0.386 | 0.414 | 0.329 | 0.891 | 0.992 | 1 | 0.95 | 0.872 | 0.852 | 1.01 | 0.733 | 0.777 | 0.308
HOP-62 | 0.856 | 1.07 | 1.15 | 1.02 | 0.679 | 0.733 | 0.745 | 0.707 | 0.965 | 0.954 | 1.1 | 0.96 | 1.11 | 1.1 | 1.09 | 0.833 | 1.01 | 0.577
NCI-H2085 | 1.03 | 1.12 | 1.27 | 0.981 | 0.483 | 0.448 | 0.406 | 0.29 | 1.01 | 1.02 | 0.992 | 0.965 | 0.801 | 0.675 | 0.588 | 0.4 | 0.384 | 0.318
